# Assay results reported in article PMC12557380, “Optimization of 2,8-Diaryl-1,5-naphthyridines as Plasmodium falciparum Phosphatidylinositol 4‑Kinase Inhibitors with Improved ADME Profiles and In Vivo Efficacy” (Journal of Medicinal Chemistry, 2025).
# Like-named read-outs stand apart in the source and are kept apart here.
# Legend:
# [1] = tested on: PfDd2; conditions: read-out: PfDd2 IC50; reported inhibitors, Figure 1; cited from earlier work
# [2] = tested on: HsPI4K; conditions: reported inhibitors, Figure 1; cited from earlier work
# [3] = tested on: panel of the drug-resistant strains of P. falciparum; conditions: Figure 1, read-out: PfIC50; cited from earlier work
# [4] = tested on: P. vivax PI4Kβ (PvPI4K); conditions: cited from earlier work
# [5] = tested on: P. falciparum K1 (PfK1) strain; assay: In vitro antiplasmodial asexual blood stage activity, pLDH assay, K1; assay type: cell-based; conditions: Plasmodium falciparum
# [6] = tested on: PfNF54; conditions: cited from earlier work
# [7] = tested on: HepG2 cells; assay: Cytotoxicity, MTT assay, HepG2; assay type: cell-based
# [8] = tested on: L6 rat myoblast cell line; assay: Cytotoxicity, L6; assay type: cell-based; conditions: read-out: L6 IC50
# [9] = tested on: Chinese hamster ovary cells; assay: Cytotoxicity, MTT assay, CHO; assay type: cell-based; conditions: Cricetulus griseus, read-out: CHO IC50
# [10] = tested on: P. falciparum NF54 (PfNF54) parasites; assay: In vitro antiplasmodial asexual blood stage activity, pLDH assay, NF54; assay type: cell-based, Plasmodium falciparum; conditions: Plasmodium falciparum
# [11] = tested on: Pf3D7; conditions: read-out: Pf3D7 IC50; cited from earlier work
# [12] = in vitro; conditions: human, pH 7.4
# [13] = in vivo; conditions: male, Balb/C, mouse, po, 10 mg/kg
# [14] = physchem; conditions: n-octanol/phosphate buffer (1:1), pH 7.4
# [15] = tested on: P. falciparum PI4K cKD line; assay: microbe, parasite or virus in culture; conditions: Plasmodium falciparum
# [16] = physchem; conditions: 25 °C, pH 6.5, aqueous buffer, thermodynamic from solid
# [17] = in vitro; conditions: mouse, pH 7.4
# [18] = for in vivo mouse CLb: total body clearance from whole blood, iv 3 mg/kg; for in vivo mouse CLu: unbound blood clearance from CLb and plasma protein binding
# [19] = in vitro; conditions: human, Caco-2
# [20] = target: HsPI4Kβ (Homo sapiens, UniProt Q9UBF8); assay: Human lipid kinase screening, ADP-Glo, PI4Kβ; assay type: biochemical; conditions: IC50/PvPI4K IC50
# [21] = target: HsMAP4K4 (Homo sapiens, UniProt O95819); assay: Human kinase screening, ADP-Glo, MAP4K4; assay type: biochemical; conditions: IC50/PvPI4K IC50
# [22] = target: HsPI3Kα (Homo sapiens, UniProt P42336); assay: Human lipid kinase screening, ADP-Glo, PI3Kα; assay type: biochemical; conditions: IC50/PvPI4K IC50
# [23] = target: HsMINK1 (Homo sapiens, UniProt Q8N4C8); assay: Human kinase screening, ADP-Glo, MINK1; assay type: biochemical; conditions: IC50/PvPI4K IC50
# [24] = tested on: PI4K S743F + H1484Y and PI4K S1320L + L1418F mutant lines; conditions: 72 h, SYBR green I
# [25] = K1, 72 h, read-out: Pf ABS IC50 K1
# [26] = Homo sapiens, HepG2, read-out: HepG2 IC50
# [27] = NF54, 72 h, read-out: Pf ABS IC50 NF54
# [28] = read-out: IC50 Mean + SD, +aTc, mean of N=3, +aTc
# [29] = read-out: IC50 Mean + SD, no aTc, mean of N=3, no aTc
# [30] = read-out: IC50 for PfPI4K, +aTc, N=1, +aTc
# [31] = read-out: IC50 for PfPI4K, +aTc, N=2, +aTc
# [32] = read-out: IC50 for PfPI4K, +aTc, N=3, +aTc
# [33] = read-out: IC50 for PfPI4K, no aTc, N=1, no aTc (knockdown)
# [34] = read-out: IC50 for PfPI4K, no aTc, N=2, no aTc (knockdown)
# [35] = read-out: IC50 for PfPI4K, no aTc, N=3, no aTc (knockdown)
# [36] = NF54, 72 h, pLDH assay, 72 h, read-out: Pf ABS IC50 NF54
# [37] = NF54, mean, supplement, read-out: PfNF54 IC50
# Sequence of HsMINK1 (Q8N4C8 whole entry): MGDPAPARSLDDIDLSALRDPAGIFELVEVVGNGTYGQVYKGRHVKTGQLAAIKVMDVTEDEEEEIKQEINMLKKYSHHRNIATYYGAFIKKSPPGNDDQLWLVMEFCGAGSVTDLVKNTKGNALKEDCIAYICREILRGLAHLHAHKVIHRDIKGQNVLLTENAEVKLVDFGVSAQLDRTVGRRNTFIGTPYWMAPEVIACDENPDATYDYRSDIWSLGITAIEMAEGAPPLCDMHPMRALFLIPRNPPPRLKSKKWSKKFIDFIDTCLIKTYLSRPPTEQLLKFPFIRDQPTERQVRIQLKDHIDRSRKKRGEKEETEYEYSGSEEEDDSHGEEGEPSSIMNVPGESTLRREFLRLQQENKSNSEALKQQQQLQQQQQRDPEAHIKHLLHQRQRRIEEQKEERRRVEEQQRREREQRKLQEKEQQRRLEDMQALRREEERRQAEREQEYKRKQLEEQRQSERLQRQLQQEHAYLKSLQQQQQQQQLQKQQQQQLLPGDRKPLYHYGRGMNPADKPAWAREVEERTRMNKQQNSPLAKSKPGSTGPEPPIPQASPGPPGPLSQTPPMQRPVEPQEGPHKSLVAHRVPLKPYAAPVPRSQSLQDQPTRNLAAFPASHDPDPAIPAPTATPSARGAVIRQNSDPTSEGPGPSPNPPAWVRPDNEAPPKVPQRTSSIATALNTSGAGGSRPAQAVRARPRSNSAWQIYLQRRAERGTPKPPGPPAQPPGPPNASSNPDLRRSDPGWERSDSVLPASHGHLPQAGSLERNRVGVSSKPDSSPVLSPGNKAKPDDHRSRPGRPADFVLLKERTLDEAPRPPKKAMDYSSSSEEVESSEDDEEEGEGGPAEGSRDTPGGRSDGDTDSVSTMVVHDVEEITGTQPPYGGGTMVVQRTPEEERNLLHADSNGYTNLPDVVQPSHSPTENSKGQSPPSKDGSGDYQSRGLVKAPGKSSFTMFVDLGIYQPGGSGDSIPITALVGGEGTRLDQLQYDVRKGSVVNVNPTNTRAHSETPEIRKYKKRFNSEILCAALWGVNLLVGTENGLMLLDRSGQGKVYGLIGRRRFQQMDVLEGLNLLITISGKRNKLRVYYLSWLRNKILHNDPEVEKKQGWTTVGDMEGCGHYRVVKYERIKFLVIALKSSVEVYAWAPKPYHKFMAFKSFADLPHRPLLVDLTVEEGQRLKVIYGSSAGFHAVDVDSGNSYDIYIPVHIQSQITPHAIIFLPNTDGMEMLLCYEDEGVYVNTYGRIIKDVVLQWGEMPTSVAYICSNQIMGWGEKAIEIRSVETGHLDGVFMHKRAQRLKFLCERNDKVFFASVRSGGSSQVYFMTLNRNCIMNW
# Sequence of HsPI4Kβ (Q9UBF8 whole entry): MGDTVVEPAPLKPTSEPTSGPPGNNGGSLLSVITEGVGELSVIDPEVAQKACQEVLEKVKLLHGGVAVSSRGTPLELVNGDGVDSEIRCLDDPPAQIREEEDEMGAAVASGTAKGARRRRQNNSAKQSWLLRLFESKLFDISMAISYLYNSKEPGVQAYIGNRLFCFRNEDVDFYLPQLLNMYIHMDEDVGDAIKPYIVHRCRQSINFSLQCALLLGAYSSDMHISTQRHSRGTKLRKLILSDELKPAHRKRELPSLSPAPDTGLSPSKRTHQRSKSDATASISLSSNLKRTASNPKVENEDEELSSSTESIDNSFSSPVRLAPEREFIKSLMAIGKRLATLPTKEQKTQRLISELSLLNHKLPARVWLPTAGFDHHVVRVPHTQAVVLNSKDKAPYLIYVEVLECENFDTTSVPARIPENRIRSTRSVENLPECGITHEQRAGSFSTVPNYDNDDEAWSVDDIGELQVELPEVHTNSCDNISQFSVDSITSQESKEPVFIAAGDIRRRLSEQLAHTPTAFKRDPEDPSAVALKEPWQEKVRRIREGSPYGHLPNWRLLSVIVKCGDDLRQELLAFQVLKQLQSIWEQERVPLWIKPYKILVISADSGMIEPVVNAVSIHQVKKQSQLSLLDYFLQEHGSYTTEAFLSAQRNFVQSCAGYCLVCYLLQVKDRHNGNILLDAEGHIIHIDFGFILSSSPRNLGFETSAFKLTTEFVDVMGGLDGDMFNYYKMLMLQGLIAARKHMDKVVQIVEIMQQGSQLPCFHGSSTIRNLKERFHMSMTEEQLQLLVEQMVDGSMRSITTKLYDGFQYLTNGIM
# Sequence of HsPI3Kα (P42336 whole entry): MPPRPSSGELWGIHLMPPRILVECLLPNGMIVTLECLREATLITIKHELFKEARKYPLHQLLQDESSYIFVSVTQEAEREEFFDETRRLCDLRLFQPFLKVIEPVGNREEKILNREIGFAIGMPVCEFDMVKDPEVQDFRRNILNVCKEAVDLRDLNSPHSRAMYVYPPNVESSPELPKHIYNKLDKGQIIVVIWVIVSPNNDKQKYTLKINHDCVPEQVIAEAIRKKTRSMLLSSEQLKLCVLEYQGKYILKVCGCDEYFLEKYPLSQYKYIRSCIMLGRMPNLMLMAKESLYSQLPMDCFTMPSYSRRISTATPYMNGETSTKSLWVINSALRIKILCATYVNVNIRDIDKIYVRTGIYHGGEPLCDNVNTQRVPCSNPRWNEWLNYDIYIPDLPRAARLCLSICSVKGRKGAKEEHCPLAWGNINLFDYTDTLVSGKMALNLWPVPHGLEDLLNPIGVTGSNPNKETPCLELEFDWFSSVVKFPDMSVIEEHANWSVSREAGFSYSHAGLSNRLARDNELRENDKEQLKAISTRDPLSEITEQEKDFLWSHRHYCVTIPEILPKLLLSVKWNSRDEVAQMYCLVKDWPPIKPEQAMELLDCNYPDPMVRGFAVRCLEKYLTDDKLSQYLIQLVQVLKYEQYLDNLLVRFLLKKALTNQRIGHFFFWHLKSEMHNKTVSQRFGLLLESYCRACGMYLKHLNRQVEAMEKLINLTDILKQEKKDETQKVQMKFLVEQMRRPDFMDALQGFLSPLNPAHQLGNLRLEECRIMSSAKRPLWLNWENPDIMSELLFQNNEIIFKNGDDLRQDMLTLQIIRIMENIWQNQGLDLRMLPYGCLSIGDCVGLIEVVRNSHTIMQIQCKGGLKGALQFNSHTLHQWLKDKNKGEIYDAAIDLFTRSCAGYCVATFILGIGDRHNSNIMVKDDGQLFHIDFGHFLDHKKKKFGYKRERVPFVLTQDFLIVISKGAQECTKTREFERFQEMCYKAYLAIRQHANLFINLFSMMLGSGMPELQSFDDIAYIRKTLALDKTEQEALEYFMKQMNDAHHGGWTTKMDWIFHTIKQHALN
# Sequence of HsPI3Kα (P27986 whole entry partner): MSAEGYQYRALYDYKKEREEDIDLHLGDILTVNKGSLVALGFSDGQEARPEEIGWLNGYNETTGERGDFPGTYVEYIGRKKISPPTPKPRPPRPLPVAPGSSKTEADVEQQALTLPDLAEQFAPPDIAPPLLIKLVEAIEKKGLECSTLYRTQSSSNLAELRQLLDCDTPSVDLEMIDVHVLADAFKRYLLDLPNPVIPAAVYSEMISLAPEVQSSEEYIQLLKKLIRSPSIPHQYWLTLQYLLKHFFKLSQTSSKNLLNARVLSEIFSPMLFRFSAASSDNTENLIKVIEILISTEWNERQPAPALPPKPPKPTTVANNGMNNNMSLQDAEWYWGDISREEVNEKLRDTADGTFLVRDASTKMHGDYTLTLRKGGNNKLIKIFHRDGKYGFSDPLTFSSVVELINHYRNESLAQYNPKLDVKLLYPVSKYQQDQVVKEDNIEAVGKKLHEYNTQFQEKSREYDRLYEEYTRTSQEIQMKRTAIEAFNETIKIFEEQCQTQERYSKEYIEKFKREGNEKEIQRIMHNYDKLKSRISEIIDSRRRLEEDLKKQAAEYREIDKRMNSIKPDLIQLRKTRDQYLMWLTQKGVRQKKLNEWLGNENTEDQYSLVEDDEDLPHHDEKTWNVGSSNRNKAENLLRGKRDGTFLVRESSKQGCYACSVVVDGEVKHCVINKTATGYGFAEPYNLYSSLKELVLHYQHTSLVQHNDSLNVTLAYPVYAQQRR
compound,measurement,setting,value
COc1ccc2c3c([nH]c2c1)[C@H](CO)N(C(C)=O)CC31CCN(C(=O)Nc2ccccc2F)CC1 [BRD73842],IC50,[1],0.069 µM
"CNC(=O)c1cncc(-c2cnc(Cl)c(NS(=O)(=O)c3ccccc3)c2)c1 [CHMFL-PI4K-127, 6′-Chloro-N-Methyl-5′-(Phenylsulfonamido)-[3,3′-Bipyridine]-5-Carboxamide]",IC50,[2],0.43 µM
same,IC50,[3],0.024 to 0.047 µM
same,IC50,"[4]; reported inhibitors, Figure 1",0.0009 µM
NS(=O)(=O)c1cccc(-c2ccc3nccc(-c4ccnc(C(F)(F)F)c4)c3n2)c1 [Compound 1],IC50,[5]; [25],0.086 µM
same,IC50,[6],0.063 µM
same,IC50,[7]; [26],48 µM
same,IC50,[8],35 µM
same,IC50,[4],0.006 µM
same,IC50,[9],6 µM
same,IC50,[10]; [27],0.063 µM
same,IC50,[11],0.14 µM
"Cn1ccc(-c2ccc3nccc(-c4cccc(S(C)(=O)=O)c4)c3n2)cc1=O [Compound 19, 1-Methyl-4-[8-(3-methylsulfonylphenyl)-1,5-naphthyridin-2-yl]pyridin-2-one]",CLint scaled at 1 µM,[12]; microsomes,< 0.804 L/h/kg
same,CLint scaled at 1 µM,[12]; pooled human liver microsomes,< 1.18 L/h/kg
same,bioavailability,[13],27%
same,logD at 3 h,[14],1.46
same,IC50,[15]; [28],0.036 µM
same,IC50,[15]; [29],0.0043 µM
same,IC50,[15]; [30],0.0489 µM
same,IC50,[15]; [31],0.0202 µM
same,IC50,[15]; [32],0.0392 µM
same,IC50,[15]; [33],0.0052 µM
same,IC50,[15]; [34],0.0025 µM
same,IC50,[15]; [35],0.0051 µM
same,IC50,[9]; one biological replicate,47 µM
same,solubility thermodynamic at 20 h,[16],40 µM
same,IC50,[10]; [36],0.016 µM
same,CLint scaled at 1 µM,[17]; microsomes,< 2.74 L/h/kg
same,CLint scaled at 1 µM,[17]; mouse liver microsomes,< 4.03 L/h/kg
same,in vivo mouse CLb,[18],6.12 L/h/kg
same,in vivo mouse CLu,[18],18 L/h/kg
same,Papp A→B,[19],140 nm/s
"CS(=O)(=O)c1cccc(-c2ccnc3ccc(N4CCC(O)CC4)nc23)c1 [Compound 21, 1-[8-(3-Methylsulfonylphenyl)-1,5-naphthyridin-2-yl]piperidin-4-ol]",CLint scaled at 1 µM,[12]; microsomes,< 0.804 L/h/kg
same,CLint scaled at 1 µM,[12]; pooled human liver microsomes,< 1.06 L/h/kg
same,bioavailability,[13],37%
same,IC50,"[7]; Homo sapiens, HepG2; read-out: HepG2 IC50",> 50 µM
same,IC50,[8],8 µM
same,logD at 3 h,[14],2.27
same,IC50,[15]; [28],0.0845 µM
same,IC50,[15]; [29],0.014 µM
same,IC50,[15]; [30],0.131 µM
same,IC50,[15]; [31],0.0689 µM
same,IC50,[15]; [32],0.0536 µM
same,IC50,[15]; [33],0.0217 µM
same,IC50,[15]; [34],0.0105 µM
same,IC50,[15]; [35],0.0097 µM
same,IC50,[9]; one biological replicate,49 µM
same,solubility thermodynamic at 20 h,[16]; aqueous solution,150 µM
same,IC50,[10]; [36],0.032 µM
same,CLint scaled at 1 µM,[17]; microsomes,< 2.74 L/h/kg
same,CLint scaled at 1 µM,[17]; mouse liver microsomes,< 3.61 L/h/kg
same,in vivo mouse CLb,[18],4.8 L/h/kg
same,in vivo mouse CLu,[18],32 L/h/kg
same,Papp A→B,[19],180 nm/s
"CS(=O)(=O)c1cccc(-c2ccnc3ccc(N4CCCC(C(N)=O)C4)nc23)c1 (centres unmarked) [Compound 22, 1-[8-(3-Methylsulfonylphenyl)-1,5-naphthyridin-2-yl]piperidine-3-carboxamide]",HsPI4Kβ SI,[20],56
same,HsMAP4K4 SI,[21],> 4000
same,HsPI3Kα SI,[22],60
same,HsMINK1 SI,[23],> 4000
same,IC50,[9]; one biological replicate,> 50 µM
same,solubility thermodynamic at 20 h,[16],10 µM
same,IC50,[10]; [36],0.067 µM
same,IC50,[10]; [37],0.0672 µM
"CNC(=O)Cc1cccc(-c2ccc3nccc(-c4ccc(C(C)(C)O)nc4)c3n2)c1 [Compound 27, 2-[3-[8-[6-(2-Hydroxypropan-2-yl)pyridin-3-yl]-1,5-naphthyridin-2-yl]phenyl]-N-methylacetamide]",IC50,[5]; [25],0.081 µM
same,IC50,"[5]; K1, read-out: PfK1 IC50",0.0812 µM
same,IC50,[7]; [26],6 µM
same,IC50,[8],38 µM
same,IC50,[9],31 µM
same,IC50,[10]; [27],0.051 µM
same,IC50,"[10]; NF54, read-out: PfNF54 IC50",0.0507 µM
same,IC50,"[10]; NF54, read-out: free IC50",0.04 µM
"CS(=O)(=O)c1cccc(-c2ccc3nccc(-c4ccc(C(=O)N5CCC(O)C5)cc4)c3n2)c1 (centres unmarked) [Compound 37, (3-Hydroxypyrrolidin-1-yl)-[4-[6-(3-methylsulfonylphenyl)-1,5-naphthyridin-4-yl]phenyl]methanone]",IC50,"[5]; K1, pLDH assay, 72 h, read-out: Pf ABS IC50 K1",0.096 µM
same,CLint scaled at 1 µM,[12]; microsomes,< 0.804 L/h/kg
same,CLint scaled at 1 µM,[12]; pooled human liver microsomes,< 1.64 L/h/kg
same,bioavailability,[13],11%
same,logD at 3 h,[14],1.92
same,IC50,[9]; one biological replicate,24 µM
same,solubility thermodynamic at 20 h,[16]; aqueous solution,60 µM
same,IC50 shift against PI4K mutant lines relative to parent Dd2,[24],showed IC50 shifts
same,IC50,[10]; [36],0.032 µM
same,IC50,[10]; [37],0.0322 µM
same,CLint scaled at 1 µM,[17]; microsomes,< 2.74 L/h/kg
same,CLint scaled at 1 µM,[17]; mouse liver microsomes,< 5.59 L/h/kg
same,in vivo mouse CLb,[18],10.9 L/h/kg
same,in vivo mouse CLu,[18],21.7 L/h/kg
same,Papp A→B,[19],15 nm/s
same,efflux ratio,[19],32
CNC(=O)c1ccc(-c2cnc3cnc(C(=O)N(C)c4ccc(Cl)cc4)cn23)cc1 [KDU691],IC50,[2],7.9 µM
same,IC50,[3],0.027 to 0.07 µM
same,IC50,[4],0.0016 µM
